Earlier results in paper PMC6381106 (Scientific Reports, 2019).

Tested on: TLR4
Conditions: literature; ref [62]–[65]; cited from earlier work
Description: Multiple anti-inflammatory immunomodulatory therapies have been developed to ameliorate proinflammation following bacterial infection. […] Therefore, novel therapeutic approaches that decrease inflammatory responses should be developed, and researchers should expand the focus beyond agents that only treat the initial infe ...

For `CCOC(=O)C1=CCCC[C@H]1S(=O)(=O)Nc1ccc(F)cc1Cl` [TAK-242], the “outcome in clinical trials (TLR4 inhibitor; in words)” value is listed as “unsuccessful in clinical trials”.
